Assay results: US11185077B2, “Attractants for rodents” (priority 2016, dated 2021)

How the values were obtained:
house mice, Mus musculus = assay: Laboratory T-tube bioassay: behavioral responses of mice (first choice, time spent); assay type: in vivo; conditions: male mice
Source text: A laboratory experimental apparatus was constructed to test the behavioral responses of mice to the compositions described herein. The experimental design is depicted in FIG. 4 and includes three clear Plexiglas chambers: release chamber (1: 40 cm×20 cm×30 cm for placement of a mouse at the onset of a bioassay), and response chambers (3a and 3b: each 60 cm×30 cm×40 cm) interconnected by a Pyrex glass T-tube (2; stem: 65 cm long, side arms: 45 cm long, all 10 cm in diameter). Each response chamber housed a test stimulus in a Petri dish (4a, 4b; 3 cm diam.). For each replicate, a single mouse was deprived of food, but not water, for 4-6 h before being placed into chamber 1, which was illuminated by dim red light to facilitate observations of the mouse's position. The mouse was allowed to enter the stem of the T-tube (2) on its own accord in response to test stimuli, which were randomly assigned to response chamber 3a or 3b.
Both response chambers were fitted with a Petri dish (4a, 4b) containing a Whatman #1 filter paper disk (25 mm diam.) treated with a randomly assigned treatment stimulus or control stimulus. For each bioassay, a single mouse was tested and the following data were recorded: (1) the treatment or control chamber the mouse entered first with all four paws (“first-choice data”); and (2) the position of the mouse at each of 30 30-sec intervals after its first entry into the T-tube. Position data were then used to calculate the proportion of time a mouse spent in the treatment or control chamber (“time-spent data”).
Following each replicate, the chambers and T-tube were cleaned with a Percept® disinfectant detergent (Virox Technologies Inc. Mississaugua ON L5N 5M4, Canada) and wiped with 70% ethanol.
First-choice data and the time spent in a trap box quadrant were analyzed using a χ^2 test with Yates' correction for continuity (α=0.05) and the Student's t-test (α=0.05), respectively.
In Experiment 5, the laboratory experimental design of FIG. 4 was used to evaluate the responses of female mice to synthetic androstenone. For Experiment 5, the treatment stimulus consisted of filter paper treated with 4 μg of synthetic androstenone (see Experiments 1 and 2), and the control stimulus consisted of filter paper treated with the 50 μl of ether without androstenone.
In Experiment 6, the laboratory experimental design of FIG. 4 was used to evaluate the responses of male mice to blends of synthetic progesterone and estrogen. For Experiment 6, the treatment stimulus consisted of filter paper treated with a 4-μg blend of the synthetic hormones progesterone and estrogen formulated in 50 μl of ether at a ratio of 100:1 and a control stimulus which consisted of filter paper treated with 50 μl of ether.
In Experiments 9 to 11, the laboratory experimental design of FIG. 4 was used to evaluate the responses of male mice to synthetic progesterone and estrogen. For the Experiments, the treatment stimulus consisted of filter paper treated with a blend of the synthetic progesterone (50 ng) and estrogen (25 ng) (hereinafter “synthetic hormone blend”) (Experiment 9), progesterone alone (75 ng) (Experiment 10) or estrogen alone (75 ng) (Experiment 11) formulated in 50 μl ether. The control stimulus consisted of filter paper treated with 50 μl of ether for each of Experiments 9 to 11.
Experiment 12 used the laboratory experimental apparatus of FIG. 4 to test choices of female mice between filter paper treated with 75 ng of synthetic testosterone (the treatment stimulus) formulated in 50 μl of ether and control filter paper treated with 50 μl of ether. Experiment 13 was identical to Experiment 12 except that the treatment stimulus consisted of filter paper treated with 75 ng of synthetic androstenone.

[1] = test system: wild house mice, Mus musculus; assay: Field experiments with paired trap boxes: trap captures of wild mice; assay type: in vivo
[2] = Experiment 11, estrogen alone (75 ng)
[3] = Experiment 10, progesterone alone (75 ng)
[4] = Experiment 22, 750 ng of progesterone

C[C@]12CC[C@@H]3c4ccc(O)cc4CC[C@H]3[C@@H]1CC[C@@H]2O [estrogen, (8R,9S,13S,14S,17S)-13-methyl-6,7,8,9,11,12,14,15,16,17-decahydrocyclopenta[a]phenanthrene-3,17-diol]
first entry into baited chamber vs control chamber (house mice, Mus musculus; [2]): significantly more often
responsiveness of male mice compared with progesterone (house mice, Mus musculus; [2]): more responsive to estrogen than to progesterone
time spent in treatment chamber vs control chamber (house mice, Mus musculus; [2]): significantly more time
captures of wild mice vs control traps ([1]; Experiment 23, 750 ng of estradiol (estrogen)): as ineffective as control traps

CC(=O)[C@H]1CC[C@H]2[C@@H]3CCC4=CC(=O)CC[C@]4(C)[C@H]3CC[C@]12C [progesterone]
first entry into treated chamber vs control chamber (house mice, Mus musculus; [3]): did not significantly choose to first enter
responses of male mice compared with the blend (house mice, Mus musculus; [3]): less pronounced
time spent in treated chamber vs control chamber (house mice, Mus musculus; [3]): significantly more time
captures of adult male mice vs control traps [1, 4]: significantly more
captures of juvenile male mice vs control traps [1, 4]: significantly more
